# Data taken from US20240117431A1, “STEM-CELL BASED BIOMARKER DISCOVERY” (THE REGENTS OF THE UNIVERSITY OF CALIFORNIA, priority 2020, published 2024).
# Entries after “also recorded” stand apart in the source; their conditions may differ.
# Key:
# TgUPRT (wild type) = target: T1, TgUPRT (wild type) (Toxoplasma gondii, UniProt Q26998); experiment: Specific activity of TgUPRT variants with uracil analog substrates in vitro (phosphoribosyltransferase, HPLC); format: biochemical; settings: 0.5 μg enzyme in 80 μL, 37° C., 2-5 min, substrates 1 mM, PBS pH 7.4; DMSO none (Uracil, 5-BrVUra), 1.6% (5-EtUra, 5-AU, 5AMU), 3.2% (5-VUra)
# T1 construct: made in house; host or cells: E. coli BL21(DE3)
# T1 sequence (Q26998 whole entry): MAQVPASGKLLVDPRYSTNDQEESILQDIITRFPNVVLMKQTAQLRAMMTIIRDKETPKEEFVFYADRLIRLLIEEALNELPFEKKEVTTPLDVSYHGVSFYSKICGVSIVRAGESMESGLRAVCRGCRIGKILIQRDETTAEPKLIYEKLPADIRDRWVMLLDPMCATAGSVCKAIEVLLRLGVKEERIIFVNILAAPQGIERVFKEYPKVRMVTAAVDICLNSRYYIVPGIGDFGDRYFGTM
# Protocol: Enzyme activity assay: The standard activity assay was performed by incubating 10 μL of free extract or 0.5 μg of pure His-tag enzyme with 1 mM Phosphoribosyl pyrophosphate (PRPP), 1 mM uracil, 5 mM MgCl2 in 50 mM PBS buffer pH 7.4 in a final volume of 80 μL. The reaction mixture was incubated at 37° C. for 2-5 min (300 rpm). Enzyme was inactivated by adding 80 μL of cold methanol in ice-bath and heating for 5 min at 100° C. After centrifugation at 9000×g for 5 min, samples were half-diluted with water and the NMP production was analysed by HPLC to quantitatively measure the reaction products as described below in the analytical methods. All determinations were carried out in triplicate assuming Michaelis-Menten conditions, and the maximum error was below 5%. […]
# Substrate specificity studies Enzymatic synthesis of the different pyrimidine nucleoside monophosphate (NMP) derivatives was carried out by incubating 0.5 μg of pure His-tag enzyme with 1 mM PRPP, 1 mM pyrimidine base and 5 mM MgCl2 in 50 mM PBS buffer pH 7.4 (1.6-3.2% v/v DSMO). […] Subsequently, the reaction mixture was processed as described above and the NMP production was analyzed by HPLC.
# Analytical methods: The production of NMPs was quantitatively measured with an ACE EXCEL 5 μm CN-ES 250×4.6 mm equilibrated with 100% trimethyl ammonium acetate at a flow rate of 0.8 mL/min. […]
# [1] = target: T2, uracil monophosphate synthetase (UMPS) overexpressed in HEK cells (Homo sapiens, UniProt P11172); experiment: RNA incorporation with overexpression of UMPS, dot blot; format: cell-based; settings: 1 mM, 24 hours, FIG. 12
# T2 construct: expressed in transfected cells; host or cells: HEK cells
# T2 sequence (P11172 1-480): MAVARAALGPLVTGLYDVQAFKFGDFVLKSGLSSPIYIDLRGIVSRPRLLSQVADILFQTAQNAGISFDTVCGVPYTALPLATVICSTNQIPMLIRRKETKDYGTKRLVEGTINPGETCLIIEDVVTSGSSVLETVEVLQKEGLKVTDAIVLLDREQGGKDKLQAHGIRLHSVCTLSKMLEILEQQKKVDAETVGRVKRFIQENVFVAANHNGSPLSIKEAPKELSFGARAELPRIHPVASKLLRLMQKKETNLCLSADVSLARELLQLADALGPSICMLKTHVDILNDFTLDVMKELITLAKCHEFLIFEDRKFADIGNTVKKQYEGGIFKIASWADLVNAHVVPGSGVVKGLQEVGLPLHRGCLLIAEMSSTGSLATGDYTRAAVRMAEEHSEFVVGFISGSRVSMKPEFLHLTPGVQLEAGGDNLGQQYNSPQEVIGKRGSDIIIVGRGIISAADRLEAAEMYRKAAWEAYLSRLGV
# Protocol: Analogs were incubated for 24 hours at 1 mM concentration in HEK cells. RNA was extracted and biotinylated using MTSEA-Biotin, followed by dot-blot analysis. Strep-HRP=Streptavidin conjugated Horseradish peroxidase. MeBI=methylene blue staining serving as loading control.
Structure (SMILES),"Specific Activity, TgUPRT (TgUPRT (wild type))",incorporation into cellular RNA with UMPS overexpression [1]
"C#Cc1c[nH]c(=O)[nH]c1=O [compound 1, 5-ethynylpyrimidine-2,4(1H,3H)-dione]",reactive,higher amount; also recorded: incorporation
"C=Cc1c[nH]c(=O)[nH]c1=O [compound 2, 5-Vinylpyrimidine-2,4(1H,3H)-dione]",undetectable activity,did not result in 2 incorporation into RNA and not
